In patent US20050148653A1, “Polymaleimide compounds and their medical use” (priority 2001, published 2005):
Like-named read-outs stand apart in the source and are kept apart here.

Legend:
[1] = test system: HIV (IHV-1RF); test: Anti-viral (virucidal) assay: plate-bound HIV treated 10 minutes, C8166 cells added, syncytium score and XTT; type: cell-based; conditions: for Syncytia score day 5 (quadruplicate wells) / Syncytia score day 6 (quadruplicate wells): C8166 cells; for Mean Optical Readings at 450 nm: XTT cell viability
Procedure: HIV was attached to the surface of 96-well cell culture plates using 100 μl of 50 μg/ml poly-L-lysine hydrobromide (PLL) of molecular weight >300 K for 1 h at RT. The outer wells were left uncoated and filled with 250 μl of PBS to counteract the effects of evaporation. The coated wells were washed twice with PBS and 25 μl of RPMI 1640 medium containing 5×10^3 TCID50 of IHV-1RF was added and incubated for 1 h at RT. The wells were then washed twice with PBS and 25 μl of varying concentrations of the test compounds made up with serum free medium (containing a constant 10% DMSO) were added to the wells in quadruplicate and the plates incubated at 37° C. for 10 minutes. The wells were again washed twice with PBS and 5×10^4 C8166 cells in a volume of 300 μl distributed to each well and the plates incubated for 5 and 6 days respectively. On days 5 and 6 the cells were assessed microscopically for the presence of cytopathic effect (syncytium formation) and recorded. In order to quantify the cytopathic effect, XIT which is metabolised by viable but not dead cells, was added and the absorbance read at 450 nm after […] incubation at 37° C.
An assessment of viral cytopathic effect was made microscopically on days 5 and 6, but the end point of the experiment was on day 6 when the level of virus infection (as determined by cell viability) was quantified by the use of XTT.

[2] = test system: Chlamydia trachomatis; test: Chlamydia assay: transient treatment of Chlamydia with maleimides, infection of McCoy cells, iodine-stained inclusions counted; type: cell-based; conditions: for IODINE-STAINED INCLUSIONS/FIELD F1: field 1; for IODINE-STAINED INCLUSIONS/FIELD F2: field 2; for IODINE-STAINED INCLUSIONS/FIELD F3: field 3; for IODINE-STAINED INCLUSIONS/FIELD F4: field 4; for IODINE-STAINED INCLUSIONS/FIELD F5: field 5; for MEAN COUNT/FIELD (iodine-stained inclusions): mean of 5 fields; for TOTAL COUNT/FIELDS (iodine-stained inclusions): sum of 5 fields; for COMMENTS: inclusions seen on entire coverslip: re-examined under low power; for inhibition of the infection of McCoy cells with chlamydia: transient exposure of chlamydia to compound
Procedure: Purified Chlamydia trachomatis (250 μl) was added to 250 μl of each compound concentration and the mixtures incubated at room temperature for 5 minutes. The tubes were then centrifuged (15000 rpm, 15 minutes), the supernatant decanted and the pellet washed serum free MEM (with 0.5 mls). This step was repeated and the resultant pellet resuspended MEM (in 0.5 ml) and inoculated into a confluent shell vial (coverslip) cultures of McCoy cells. The cultures were centrifuged (3000 rpm, 1 hour at 37° C.) and incubated for a further 2 hours prior to being changed onto MEM with 10% foetal calf serum, I μg/rl cycloheximide, 0.5% added glucose, vancomycin, streptomycin and amphoteracin B (Fungizone). The cultures were incubated for 68 hours, fixed in methanol and stained with Lugol's iodine. 3 replicates of each positive control (with and without DMSO) were included, as well as 2 uninoculated cell controls. Each coverslip culture was examined using low power (10×) objective to ensure that inclusions were evenly distributed and 5 high power (×40) fields were selected at random from different areas of the coverslip. Iodine stained inclusions were counted. Where no inclusions were seen on high power, the culture was re-examined under low power. Table 1. Effect of Transient Treatment with maleimides on Chlamydia Infection of McCoy Cell In Vitro. Chlamydia was pre-treated with each of the indicated maleimides for 5 minutes and the compound removed by centrifugation. McCoy cells were then exposed to the compound pre-treated chlamydia for 68 hours and inclusions counted following staining of cells with Lugols iodine.

[3] = final conc 0.02 (M), working conc 0.04 (M)
[4] = final conc 0.4 (M), working conc 0.8 (M)
[5] = final conc 1 (M), working conc 2 (M), 5 minutes pre-treatment, McCoy cells 68 hours
[6] = final conc 1 (M), working conc 2 (M)

## CCN1C(=O)C=CC1=O [Compound 4, Ethyl maleimide]
[1]; Conc 0.01 mM
  Syncytia score day 5 (quadruplicate wells): ++++ (50-100% syncytia)
[1]; Conc 0.01 mM, day 6
  Syncytia score day 6 (quadruplicate wells): ++++ (50-100% syncytia)
  Mean Optical Readings at 450 nm: 0.48
[1]; Conc 0.03 mM
  Syncytia score day 5 (quadruplicate wells): ++++ (50-100% syncytia)
[1]; Conc 0.03 mM, day 6
  Syncytia score day 6 (quadruplicate wells): ++++ (50-100% syncytia)
  Mean Optical Readings at 450 nm: 0.4915
[1]; Conc 0.1 mM
  Syncytia score day 5 (quadruplicate wells): ++++ (50-100% syncytia)
[1]; Conc 0.1 mM, day 6
  Syncytia score day 6 (quadruplicate wells): ++++ (50-100% syncytia)
  Mean Optical Readings at 450 nm: 0.5048
[1]; Conc 0.3 mM
  Syncytia score day 5 (quadruplicate wells): ++++ (50-100% syncytia)
[1]; Conc 0.3 mM, day 6
  Syncytia score day 6 (quadruplicate wells): ++++ (50-100% syncytia)
  Mean Optical Readings at 450 nm: 0.502
[1]; Conc 1 mM
  Syncytia score day 5 (quadruplicate wells): +++ (25-50% syncytia)
[1]; Conc 1 mM, day 6
  Mean Optical Readings at 450 nm: 0.5275
[1]; Conc 3 mM
  Syncytia score day 5 (quadruplicate wells): 0
[1]; Conc 3 mM, day 6
  Syncytia score day 6 (quadruplicate wells): 0
[1]; Conc 3 mM, day 6, No Virus 1.84955, Virus Control 0.5091
  Mean Optical Readings at 450 nm: 1.6305
[1]; Human immunodeficiency virus 1, C8166, read-out: IC50 (virucidal)
  IC50: 1.9 mM
[2]; chlamydia infection of McCoy cells
  activity relative to bis maleimide equivalent: less active than its bis maleimide equivalent
[2]; [3]
  IODINE-STAINED INCLUSIONS/FIELD F1: 1 inclusions/field
  IODINE-STAINED INCLUSIONS/FIELD F2: 11 inclusions/field
  IODINE-STAINED INCLUSIONS/FIELD F3: 6 inclusions/field
  IODINE-STAINED INCLUSIONS/FIELD F4: 4 inclusions/field
  IODINE-STAINED INCLUSIONS/FIELD F5: 2 inclusions/field
  MEAN COUNT/FIELD (iodine-stained inclusions): 5 inclusions/field
  TOTAL COUNT/FIELDS (iodine-stained inclusions): 24
[2]; [4]
  IODINE-STAINED INCLUSIONS/FIELD F1: 0 inclusions/field
  IODINE-STAINED INCLUSIONS/FIELD F2: 0 inclusions/field
  IODINE-STAINED INCLUSIONS/FIELD F3: 0 inclusions/field
  IODINE-STAINED INCLUSIONS/FIELD F4: 0 inclusions/field
  IODINE-STAINED INCLUSIONS/FIELD F5: 0 inclusions/field
  MEAN COUNT/FIELD (iodine-stained inclusions): 0 inclusions/field
  COMMENTS: inclusions seen on entire coverslip: No
  TOTAL COUNT/FIELDS (iodine-stained inclusions): 0
[2]; [5]
  IODINE-STAINED INCLUSIONS/FIELD F1: 0 inclusions/field
[2]; [6]
  IODINE-STAINED INCLUSIONS/FIELD F2: 0 inclusions/field
  IODINE-STAINED INCLUSIONS/FIELD F3: 0 inclusions/field
  IODINE-STAINED INCLUSIONS/FIELD F4: 0 inclusions/field
  IODINE-STAINED INCLUSIONS/FIELD F5: 0 inclusions/field
  MEAN COUNT/FIELD (iodine-stained inclusions): 0 inclusions/field
  COMMENTS: inclusions seen on entire coverslip: No
  TOTAL COUNT/FIELDS (iodine-stained inclusions): 0
[2]
  inhibition of the infection of McCoy cells with chlamydia: dose-dependent inhibition

## O=C1C=CC(=O)N1c1ccc(OCCOCCOCCOCCOc2ccc(N3C(=O)C=CC3=O)cc2)cc1 [Compound 2, PEG(5) bis phenyl bis maleimide]
[1]; Conc 0.003 mM
  Syncytia score day 5 (quadruplicate wells): ++++ (50-100% syncytia)
[1]; Conc 0.003 mM, day 6
  Syncytia score day 6 (quadruplicate wells): ++++ (50-100% syncytia)
  Mean Optical Readings at 450 nm: 0.4883
[1]; Conc 0.01 mM
  Syncytia score day 5 (quadruplicate wells): ++++ (50-100% syncytia)
[1]; Conc 0.01 mM, day 6
  Syncytia score day 6 (quadruplicate wells): ++++ (50-100% syncytia)
  Mean Optical Readings at 450 nm: 0.4895
[1]; Conc 0.03 mM
  Syncytia score day 5 (quadruplicate wells): ++++ (50-100% syncytia)
[1]; Conc 0.03 mM, day 6
  Syncytia score day 6 (quadruplicate wells): ++++ (50-100% syncytia)
  Mean Optical Readings at 450 nm: 0.4928
[1]; Conc 0.1 mM
  Syncytia score day 5 (quadruplicate wells): ++++ (50-100% syncytia)
[1]; Conc 0.1 mM, day 6
  Syncytia score day 6 (quadruplicate wells): ++++ (50-100% syncytia)
  Mean Optical Readings at 450 nm: 0.4983
[1]; Conc 0.3 mM
  Syncytia score day 5 (quadruplicate wells): +++ (25-50% syncytia)
[1]; Conc 0.3 mM, day 6
  Syncytia score day 6 (quadruplicate wells): ++++ (50-100% syncytia)
  Mean Optical Readings at 450 nm: 0.5092
[1]; Conc 1 mM, day 6
  Mean Optical Readings at 450 nm: 0.9895
[1]; Human immunodeficiency virus 1, C8166, XTT, day 6, virus treated 10 minutes, read-out: IC50 (virucidal)
  IC50: ~1 mM
[1]; Human immunodeficiency virus 1, C8166, at 1 mM
  inhibition at 1000 µM: ~50%
[2]; [3]
  IODINE-STAINED INCLUSIONS/FIELD F1: 3 inclusions/field
  IODINE-STAINED INCLUSIONS/FIELD F2: 2 inclusions/field
  IODINE-STAINED INCLUSIONS/FIELD F3: 6 inclusions/field
  IODINE-STAINED INCLUSIONS/FIELD F4: 5 inclusions/field
  IODINE-STAINED INCLUSIONS/FIELD F5: 7 inclusions/field
  MEAN COUNT/FIELD (iodine-stained inclusions): 5 inclusions/field
  TOTAL COUNT/FIELDS (iodine-stained inclusions): 23
[2]; [4]
  IODINE-STAINED INCLUSIONS/FIELD F1: 1 inclusions/field
  IODINE-STAINED INCLUSIONS/FIELD F2: 2 inclusions/field
  IODINE-STAINED INCLUSIONS/FIELD F3: 2 inclusions/field
  IODINE-STAINED INCLUSIONS/FIELD F4: 1 inclusions/field
  IODINE-STAINED INCLUSIONS/FIELD F5: 5 inclusions/field
  MEAN COUNT/FIELD (iodine-stained inclusions): 2 inclusions/field
  TOTAL COUNT/FIELDS (iodine-stained inclusions): 11
[2]; [5]
  IODINE-STAINED INCLUSIONS/FIELD F1: 0 inclusions/field
[2]; [6]
  IODINE-STAINED INCLUSIONS/FIELD F2: 0 inclusions/field
  IODINE-STAINED INCLUSIONS/FIELD F3: 0 inclusions/field
  IODINE-STAINED INCLUSIONS/FIELD F4: 0 inclusions/field
  IODINE-STAINED INCLUSIONS/FIELD F5: 0 inclusions/field
  MEAN COUNT/FIELD (iodine-stained inclusions): 0 inclusions/field
  COMMENTS: inclusions seen on entire coverslip: 6 inclusions
  TOTAL COUNT/FIELDS (iodine-stained inclusions): 0
[2]
  inhibition of the infection of McCoy cells with chlamydia: dose-dependent inhibition
